Measured values as given in patent US20050118564A1, “Methods and compositions for identification and therapeutic use of genes involved in vascular and proliferative diseases” (priority 2002, published 2005).

What was measured:
Assay type in all cases: cell-based
[1] = system: Human aortic endothelial cells (HAEC); test: MCP-1 secretion by human aortic endothelial cells exposed to disease stimuli (ELISA); details: 16 hrs, stimulus alone: 1 ng/ml TNF-α, 1 nM insulin or 100 μg/ml glycated HSA
Description: (§1) Human aortic endothelial cells (HAEC) were grown with culture medium (Basal medium from Clonetics) containing 0.2% albumin with or without 1 ng/ml TNF-α or 100 μg/ml glycated-human serum albumin (HAS) or 1 nM insulin for 16 hrs. Media were collected and the amounts of […] (DuoSet ELISA development kit—R&D Systems) and MCP-1 (Quantiline Human MCP-1 kit—R&D Systems) were measured. VCAM-1 expression was measured by incubating […] with a polyclonal goat anti-human VCAM-1 antibody (R&D Systems, 1:1000 dilution) followed by development with a rabbit anti-goat IgG-conjugated with horseradish peroxidase (HRP).

Smooth muscle cells [2] = test: MCP-1 secretion by smooth muscle cells exposed to disease stimuli; details: 1 ng/ml TNF-α, 1 nM insulin, alone or together
[3] = system: Human aortic endothelial cells (HAEC); test: VCAM-1 expression in human aortic endothelial cells exposed to disease stimuli; details: 16 hrs, 1 ng/ml TNF-α, 1 nM insulin, alone or together
Description: as §1

Smooth muscle cells [4] = test: IL-6 secretion by smooth muscle cells exposed to disease stimuli; details: 1 ng/ml TNF-α, 1 nM insulin, alone or together
[5] = system: Endothelial and smooth muscle cells grown together; test: IL-6 expression in co-cultures of endothelial and smooth muscle cells; details: endothelial and smooth muscle cells mixed (1:1, 1:2, 1:4) or layered; TNFα 1 ng/ml
Description: Endothelial and smooth muscle cells were grown together in culture media (Basal medium from Clonetics) containing 0.2% albumin. The cells had either nothing added, 1ng/ml TNFα, 1 nM insulin or TNFα and insulin. The media were collected and the amount of IL-6 and MCP-1 was measured.

Substance | increase in MCP-1 secretion [1] | induction of MCP-1 expression (Smooth muscle cells [2]) | effect on VCAM-1 gene expression [3] | induction of IL-6 expression (Smooth muscle cells [4]) | stimulus-induced IL-6 expression in co-culture versus cells cultured separately [5]
Insulin: hormone used as vascular disease stimulus, 1 nM | 40% | only moderate induction | no effect | only moderate induction | 
interleukin-1: cytokine used as disease stimulus in co-cultures (FIG. 8: IL-1β) |  |  |  |  | neither interleukin-1 nor glycated albumin/advanced glycation end products (AGE) showed enhanced induction
TNF-α | about 400% | only moderate induction | 2.8 fold | only moderate induction | greatly enhanced
